Where two headings read alike, the source gives them in different places.
What was measured:
Kir4.1 = molecular target: T1, Kir4.1 (Homo sapiens, UniProt P78508); assay: Whole-cell patch clamp, Kir4.1 currents in transfected CHO-K1 cells; type: cell-based; settings: for inhibition at 0.5 µM: CHO-K1, 0.5 μM; for inhibition at 1 µM: CHO-K1, 1 μM; for inhibition at 10 µM: CHO-K1, 10 μM; for IC50: whole-cell patch clamp
T1 construct: host or cells: CHO-K1
T1 sequence (P78508 1-379): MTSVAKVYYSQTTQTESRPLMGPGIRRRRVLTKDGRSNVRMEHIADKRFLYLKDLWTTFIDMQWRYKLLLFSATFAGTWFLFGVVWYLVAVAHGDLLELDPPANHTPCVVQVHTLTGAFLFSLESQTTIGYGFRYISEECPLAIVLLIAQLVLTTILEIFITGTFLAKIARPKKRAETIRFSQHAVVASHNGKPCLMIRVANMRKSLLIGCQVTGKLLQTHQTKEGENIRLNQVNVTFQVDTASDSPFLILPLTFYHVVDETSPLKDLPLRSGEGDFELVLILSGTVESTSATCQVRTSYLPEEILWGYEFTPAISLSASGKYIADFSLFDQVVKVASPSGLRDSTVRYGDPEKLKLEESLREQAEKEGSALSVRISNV
Protocol: Plasmids encoding WT human potassium channels Kir1.1, Kir2.1, Kir2.2, Kir4.1, and Kir4.2 were obtained from the Beijing Genomics Institute. All point mutations were constructed using the QuickChange II Site‐Directed Mutagenesis Kit (Stratagene) and subsequently verified by sequencing.
CHO‐K1 cells were maintained in DMEM/F12 growth medium containing 10% fetal bovine serum. Plasmids encoding the target genes (3600 ng) and enhanced green fluorescent protein (400 ng) were cotransfected into cells using Lipofectamine 2000 (Invitrogen) in accordance with the manufacturer's instructions. Cells were seeded onto poly‐d‐lysine (PDL)‐coated glass coverslips 1 h prior to electrophysiological recordings. All cells were cultured under standard conditions of 5% CO2 at 37 °C.
Whole‐cell patch‐clamp recordings were obtained either in transiently transfected CHO‐K1 cells or in primary cultured astrocytes at room temperature using standard patch‐clamp techniques with an Axopatch‐700B amplifier (Axon Instruments). The signals were filtered at 2 kHz and sampled at 20 kHz using the Digidata 1440A interface (Axon Instruments). The resistance of borosilicate glass pipettes was typically 2–4 MΩ when filled with the internal solution. Drug application was facilitated using a BPS perfusion system (ALA Scientific Instruments). Macroscopic currents generated by expressed potassium channels were recorded under the voltage‐clamp conditions with an internal pipette solution composed of (in mM): 140 KCl, 5 NaCl, 1 CaCl2, 1 MgCl2, 10 HEPES, and 10 EGTA, pH 7.2 adjusted with KOH. The external solution contained (in mM): 140 NaCl, 5 KCl, 2 CaCl2, 1 MgCl2, 10 glucose, and 10 HEPES, pH 7.4 adjusted with NaOH. Currents were elicited with a hyperpolarized voltage at −120 mV from the holding potential of −80 mV, followed by a ramp voltage depolarizing to +50 mV. Astrocytic resting membrane potentials were recorded under current‐clamp conditions (I = 0 pA) using standard internal and external solutions, determined immediately after achieving whole‐cell mode.

[1] = system: MDA-MB-468 breast cancer cells; assay: Cytotoxicity test (CCK-8); type: cell-based
Protocol: Cytotoxicity of all the tested compounds was determined using the cell counting kit‐8 (CCK‐8) assay kit (Beyotime, Shanghai, China). Briefly, MDA‐MB‐468 was cultured in L15 medium and plated in 96‐well plates at a density of 12,000 cells per well for 24 h at 37 °C in a 5% CO2 incubator. The tested compounds were dissolved in DMSO and diluted with culture medium (DMSO final concentration < 0.4%). Then the cells were treated with compounds (0.41, 1.23, 3.70, 11.11, 33.33, 100.00 µM) for 48 h. After treatments, removal of the supernatant liquor, 100 µL of new media diluted CCK‐8 solution (10% CCK‐8) was added into each well and incubated at 37 °C for 2 h. The absorbance of the mixture was directly measured at 450 nm. The results are presented as a percentage of the control.

[2] = +50 mV, read-out: Kir4.1 Inhibition ± SD (%) at 0.5 μM, +50 mV
[3] = -120 mV, read-out: Kir4.1 Inhibition ± SD (%) at 0.5 μM, -120 mV
[4] = +50 mV, read-out: Kir4.1 Inhibition ± SD (%) at 1 μM, +50 mV
[5] = -120 mV, read-out: Kir4.1 Inhibition ± SD (%) at 1 μM, -120 mV
[6] = +50 mV, read-out: Kir4.1 Inhibition ± SD (%) at 10 μM, +50 mV
[7] = -120 mV, read-out: Kir4.1 Inhibition ± SD (%) at 10 μM, -120 mV
[8] = Homo sapiens, MDA-MB-468, MDA-MB-468 breast cancer cells, read-out: IC50 ± SD (μM) for MDA-MB-468 Inhibition

Compound | inhibition at 1 µM (Kir4.1; [4]) [%] | inhibition at 1 µM (Kir4.1; [5]) [%] | inhibition at 10 µM (Kir4.1; [6]) [%] | inhibition at 10 µM (Kir4.1; [7]) [%] | IC50 [1, 8] [µM] | also measured
CCn1c2ccccc2c2cc(Nc3ccnc(NCCCN4CCOCC4)n3)ccc21 [EHop-016, N ^4‐(9‐ethyl‐9H‐carbazole‐3‐yl)‐N ^2‐(3‐morpholinopropyl)pyrimidine‐2,4‐diamine, reference compound] | 76 ± 1.81 | 64.6 ± 5.93 | 96.6 ± 1.38 | 97 ± 1.86 |  | inhibition at 0.5 µM (Kir4.1; [2]): 17.2 ± 2.53%; inhibition at 0.5 µM (Kir4.1; [3]): 19 ± 3.75%; IC50 (Kir4.1; CHO cells transiently expressing Kir4.1, +50 mV, read-out: IC50 for Kir4.1 inhibition (+50 mV, outward currents)): 0.61 µM; IC50 (Kir4.1; CHO cells transiently expressing Kir4.1, −120 mV, read-out: IC50 for Kir4.1 inhibition (−120 mV, inward currents)): 0.74 µM; IC50 ([1]; Homo sapiens, MDA-MB-468, 48 h, CCK-8, 48 h, read-out: IC50 against MDA-MB-468 breast cancer cells): 5.98 ± 0.67 µM
Nc1ccnc(NCCCN2CCOCC2)n1 [JX3201, N^2-(3-morpholinopropyl)pyrimidine-2,4-diamine] |  |  | 3.02 ± 1.37 | 4.04 ± 7.66 | > 50 | 
c1cc(NC2CCCCC2)nc(NCCCN2CCOCC2)n1 [JX3202, N^4-cyclohexyl-N^2-(3-morpholinopropyl)pyrimidine-2,4-diamine] |  |  | 6.08 ± 3.06 | 2.79 ± 2.22 | 21.1 ± 2.08 | 
c1cc(NC23CC4CC(CC(C4)C2)C3)nc(NCCCN2CCOCC2)n1 [JX3203, N^4-((1s,3s)-adamantan-1-yl)-N^2-(3-morpholinopropyl)pyrimidine-2,4-diamine] |  |  |  |  |  | Kir4.1 Inhibition ± SD (%) at 10 μM, +50 mV (Kir4.1; 10 μM, +50 mV): 64.79 ± 0.85%; Kir4.1 Inhibition ± SD (%) at 10 μM, -120 mV (Kir4.1; 10 μM, -120 mV): 31.27 ± 3.29%; IC50 ([1]; MDA-MB-468 breast cancer cells, read-out: IC50 ± SD (μM) for MDA-MB-468 Inhibition): 22.2 ± 5.05 µM
c1ccc(Nc2ccnc(NCCCN3CCOCC3)n2)cc1 [JX3204, N^2-(3-morpholinopropyl)-N^4-phenylpyrimidine-2,4-diamine] |  |  | 5.73 ± 2.33 | 0.47 ± 2.29 | > 50 | 
c1ccc2cc(Nc3ccnc(NCCCN4CCOCC4)n3)ccc2c1 [JX3205, N^2-(3-morpholinopropyl)-N^4-(naphthalen-2-yl)pyrimidine-2,4-diamine] |  |  | 36.5 ± 10.2 | 8.88 ± 10.2 | 16.9 ± 1.65 | 
c1cc(Nc2ccc3[nH]ccc3c2)nc(NCCCN2CCOCC2)n1 [JX3206, N^4-(1H-indol-5-yl)-N^2-(3-morpholinopropyl)pyrimidine-2,4-diamine] |  |  | 38.4 ± 5.37 | 25.9 ± 1.96 | > 50 | 
O=c1c2ccccc2[nH]c2ccc(Nc3ccnc(NCCCN4CCOCC4)n3)cc12 [JX3208, 2-((2-((3-morpholinopropyl)amino)pyrimidin-4-yl)amino)acridin-9(10H)-one] |  |  | 1.43 ± 3.1 | 2.21 ± 9.84 | 16.8 ± 0.51 | 
c1ccc2nc3ccc(Nc4ccnc(NCCCN5CCOCC5)n4)cc3cc2c1 [JX3209, N^4-(acridin-2-yl)-N^2-(3-morpholinopropyl)pyrimidine-2,4-diamine] | -0.09 ± 6.09 | 5.58 ± 4.14 | 85.9 ± 3.9 | 86.4 ± 4.85 | 38.4 ± 4.21 | 
CC1(C)c2ccccc2-c2cc(Nc3ccnc(NCCCN4CCOCC4)n3)ccc21 [JX3210, N^4-(9,9-dimethyl-9H-fluoren-3-yl)-N^2-(3-morpholinopropyl)pyrimidine-2,4-diamine] | 62 ± 4.2 | 42.7 ± 2.34 | 93.2 ± 3.42 | 98.69 ± 0.66 | 2.66 ± 0.51 | 
O=C1c2ccccc2-c2cc(Nc3ccnc(NCCCN4CCOCC4)n3)ccc21 [JX3211, 3-((2-((3-morpholinopropyl)amino)pyrimidin-4-yl)amino)-9H-fluoren-9-one] | 28.8 ± 5.45 | 21.3 ± 8.61 | 89.2 ± 1.72 | 81 ± 2.36 | 29.8 ± 0.5 | 
c1ccc2c3c([nH]c2c1)CCC(Nc1ccnc(NCCCN2CCOCC2)n1)C3 (stereo not drawn) [JX3213, N^2-(3-morpholinopropyl)-N^4-(2,3,4,9-tetrahydro-1H-carbazol-3-yl)pyrimidine-2,4-diamine] | 55 ± 3.87 | 41.2 ± 4.03 | 79.1 ± 3.7 | 65.1 ± 4.67 | 17.7 ± 3.05 | 
C1=Nc2ccccc2Oc2ccc(Nc3ccnc(NCCCN4CCOCC4)n3)cc21 [JX3214, N^4-(dibenzo[b,f][1,4]oxazepin-2-yl)-N^2-(3-morpholinopropyl)pyrimidine-2,4-diamine] | 60.4 ± 6.32 | 56.6 ± 3.9 | 93.6 ± 4.14 | 94.52 ± 0.7 | 4.64 ± 0.41 | 
c1ccc2c(c1)ccc1[nH]c3ccc(Nc4ccnc(NCCCN5CCOCC5)n4)cc3c12 [JX3215, N^4-(7H-benzo[c]carbazol-10-yl)-N^2-(3-morpholinopropyl)pyrimidine-2,4-diamine] | 79.3 ± 3.86 | 71 ± 2.19 | 95.83 ± 0.42 | 89.8 ± 1.62 | 6.72 ± 0.28 | inhibition at 0.5 µM (Kir4.1; [2]): 39.5 ± 5.16%; inhibition at 0.5 µM (Kir4.1; [3]): 30.3 ± 5.33%
Cc1cnc(NCCCN2CCOCC2)nc1Nc1ccc2oc3ccccc3c2c1 [JX3216, N^4-(dibenzo[b,d]furan-2-yl)-5-methyl-N^2-(3-morpholinopropyl)pyrimidine-2,4-diamine] | 16.8 ± 8.93 | 9.55 ± 3.62 | 97.02 ± 0.67 | 92 ± 1.98 | 17.9 ± 0.65 | 
Fc1cnc(NCCCN2CCOCC2)nc1Nc1ccc2oc3ccccc3c2c1 [JX3217, N^4-(dibenzo[b,d]furan-2-yl)-5-fluoro-N^2-(3-morpholinopropyl)pyrimidine-2,4-diamine] |  |  | 11.9 ± 10.1 | 7.77 ± 6.65 | > 50 | 
COc1cnc(NCCCN2CCOCC2)nc1Nc1ccc2oc3ccccc3c2c1 [JX3218, N^4-(dibenzo[b,d]furan-2-yl)-5-methoxy-N^2-(3-morpholinopropyl)pyrimidine-2,4-diamine] | 1.15 ± 2.32 | 3.97 ± 2.03 | 86.8 ± 1.76 | 74.3 ± 4.51 | 13.3 ± 0.3 | 
c1ccc2c(c1)oc1ccc(Nc3ccnc(NCCCN4CCOCC4)c3)cc12 [JX3219, N^4-(dibenzo[b,d]furan-2-yl)-N^2-(3-morpholinopropyl)pyridine-2,4-diamine] | 86.1 ± 3.36 | 78.7 ± 8.16 | 97.44 ± 0.6 | 92.6 ± 5.66 | 8.74 ± 0.36 | inhibition at 0.5 µM (Kir4.1; [2]): 49.6 ± 6.47%; inhibition at 0.5 µM (Kir4.1; [3]): 40.2 ± 4.35%
c1cc(NCCCN2CCOCC2)nc(Nc2ccc3oc4ccccc4c3c2)c1 [JX3220, N^2-(dibenzo[b,d]furan-2-yl)-N^6-(3-morpholinopropyl)pyridine-2,6-diamine] |  |  | 2.61 ± 1.87 | 3.98 ± 1.6 | 8.74 ± 0.36 | 
c1ccc2c(c1)oc1ccc(Nc3cncc(NCCCN4CCOCC4)c3)cc12 [JX3221, N^3-(dibenzo[b,d]furan-2-yl)-N^5-(3-morpholinopropyl)pyridine-3,5-diamine] | -2.41 ± 3.2 | -4.84 ± 3.28 | 96.6 ± 1.14 | 90.4 ± 5.72 | 21.2 ± 1.06 | 
